Data published in ChEMBL document CHEMBL5385851, “Natural quinazolinones: From a treasure house to promising anticancer leads” (Eur J Med Chem, 2023).
Converted amounts (≈) assume the structure as drawn.

Tests used:
[1] = tested on: A549; assay: Cytotoxicity against human A549 cells assessed as reduction in cell viability incubated for 72 hrs by MTT assay; assay type: functional, cell-based; details: A549, 72 h
[2] = tested on: Hs-578T; assay: Cytotoxicity against human Hs-578T cells assessed as cell growth inhibition; assay type: functional, cell-based
[3] = tested on: NCI-H460; assay: Cytotoxicity against human NCI-H460 cells assessed as cell growth inhibition; assay type: functional
[4] = tested on: ACHN; assay: Growth inhibition of human ACHN cells incubated for 48 hrs by SRB assay; assay type: functional
[5] = tested on: U-251; assay: Growth inhibition of human U-251 cells incubated for 48 hrs by SRB assay; assay type: functional
[6] = tested on: MGC-803; assay: Antiproliferative activity against human MGC-803 cells assessed as reduction in cell viability by MTT assay; assay type: functional, cell-based
[7] = tested on: 786-0; assay: Cytotoxicity against human 786-0 cells assessed as cell growth inhibition; assay type: functional
[8] = tested on: A549; assay: Cytotoxicity against human A549 cells assessed as cell growth inhibition; assay type: functional
[9] = tested on: MGC-803; assay: Cytotoxicity against human MGC-803 assessed as inhibition of cell growth by MTT assay; assay type: functional, cell-based
[10] = tested on: U-251; assay: Cytotoxicity against human U-251 cells assessed as cell growth inhibition; assay type: functional
[11] = tested on: DU-145; assay: Cytotoxicity against human DU-145 cells assessed as cell growth inhibition; assay type: functional
[12] = tested on: SF-268; assay: Antiproliferative activity against human SF-268 cells assessed as reduction in cell growth incubated for 48 hrs by SRB assay; assay type: functional, cell-based; details: SF-268, 48 h
[13] = tested on: NCI-H460; assay: Cytotoxicity against human NCI-H460 cells assessed reduction in cell viability; assay type: functional, cell-based
[14] = tested on: MCF7; assay: Cytotoxicity against human MCF7 cells assessed as reduction in cell growth; assay type: functional, cell-based
[15] = tested on: ACHN; assay: Growth inhibition of human ACHN cells; assay type: functional
[16] = tested on: L1210; assay: Antiproliferative activity against mouse L1210 cells assessed as cell growth inhibition measured after 72 hrs by MTT assay; assay type: functional, cell-based; details: L1210, 72 h
[17] = tested on: HL-60; assay: Cytotoxicity against human HL-60 cells assessed as cell growth inhibition by MTT assay; assay type: functional

For `O=c1c2ccccc2nc2n1C(O)c1cc3ccccc3nc1-2` (configuration not stated), the IC50 [1] was 9 µg/mL (≈ 29.9 µM).

For `COC1c2cc3ccccc3nc2-c2nc3ccccc3c(=O)n21` (configuration not stated), the IC50 [2] was 9 µg/mL (≈ 28.5 µM).

In the case of `O=c1c2ccccc2nc2n1CCc1c-2[nH]c2ccc(Br)cc12`, the GI50 [3] is reported as 1.55 µM.

`CN1c2ccccc2C(=O)N2CCc3c([nH]c4ccc(Br)cc34)C21` (configuration not stated) was tested, and the GI50 [4] was 0.4 µM and the GI50 [5] was 0.3 µM.

Compound `O=c1c2ccccc2nc2n1CC[C@@H]2O` has an IC50 [6] of 94.5 µM.

Work on `COc1ccc2c3c([nH]c2c1)-c1nc2ccccc2c(=O)n1CC3` yielded a GI50 [7] of 0.31 µM and a GI50 [8] of 0.75 µM.

`O=c1c2ccccc2nc2n1CC[C@@H]2O[C@@H]1O[C@H](CO)[C@@H](O)[C@H](O)[C@H]1O` showed an IC50 [9] of 84.1 µM.

`O=C1c2ccccc2NC2c3[nH]c4ccccc4c3CCN12` (configuration not stated) gave a GI50 [10] of 0.02 µM and a GI50 [11] of 0.2 µM.

With `CC(=O)C[C@]1(O)c2ccccc2-n2c1nc1ccccc1c2=O` the IC50 [12] was 43.9 µM, the IC50 [13] was 27 µM and the IC50 [14] was 33.8 µM.

Work on `CSc1ccc2[nH]c3c(c2c1)CCN1C(=O)c2ccccc2NC31` (configuration not stated) yielded a GI50 [15] of 0.08 µM.

In the case of `O=c1c2ccccc2nc2n1Cc1cc3cccnc3nc1-2`, the IC50 [16] is reported as 0.13 µM.

`O=c1c2ccccc2nc2n1CCc1c-2[nH]c2c(Cl)c(Cl)ccc12` was tested, and the GI50 [17] was 0.15 µM.
